Among the data in ChEMBL document CHEMBL1133286, “5-HETE congeners as modulators of cell proliferation” (2000) are Control values, retold here.

For one experiment, the system named is LNCaP. Nature of the experiment: Evaluated for its growth enhancement or mitogenic activity using LNCaP prostate cultures. Type of experiment: functional, Homo sapiens, Prostate gland.
Details: not given
`CCCCC/C=C\C/C=C\C/C=C\C=C\C(O)CCCC(=O)O` (stereo not given): the Control was 116%.

`CCCCC/C=C\C/C=C\C/C=C\C=C\C(O)CCCC(=O)N1CCOCC1` (stereo not given): the Control is recorded as 106%.

With `CCCCC/C=C\C/C=C\C/C=C\C=C\C(O)CCCC(=O)NOC` (stereo not given), the Control was found to be 133%.

Regarding `CCCCC/C=C\C/C=C\C/C=C\C/C=C\CCCC(=O)NCCO` [ANANDAMIDE], the Control is 112%.

As to `CCCCC/C=C\C/C=C\C/C=C\C=C\C(CCCC(=O)O)NC` (stereo not given), the Control was 125%.

Regarding `CCCCC/C=C\C/C=C\C/C=C\C=C\C(N)CCCC(=O)O` (stereo not given), the Control was determined as 116%.

For `CCCCC/C=C\C/C=C\C/C=C\C=C\C(O)CCCC(=O)N(C)OC` (stereo not given), the Control is given as 115%.

`CCCCC/C=C\C/C=C\C/C=C\C=C\C(O)CCCC(=O)N1CCCCC1` (stereo not given): the Control is 123%.

Turning to `CCCCC/C=C\C/C=C\C/C=C\C=C\C(O)CCCC(=O)c1cnccn1` (stereo not given), the Control was 113%.

`CCCCC/C=C\C/C=C\C/C=C\C=C\C(O)CCCC(=O)OC` (stereo not given): the Control turned out to be 111%.

In the case of `CCCCC/C=C\C/C=C\C/C=C\C=C\C(O)CCCC(N)=O` (stereo not given), the Control worked out at 108%.

As for `CCCCC/C=C\C/C=C\C/C=C\C=C\C1CCCC(=O)N1C` (stereo not given), the Control amounted to 131%.

With `CCCCC/C=C\C/C=C\C/C=C\C=C\C1CCCC(=O)N1` (stereo not given), the Control is listed as 121%.

For `CCCCC/C=C\C/C=C\C/C=C\C=C\C(O)CCCC(=O)NO` (stereo not given), the Control is 3%.

For `CCCCC/C=C\C/C=C\C/C=C\C=C\C(O)CCCC(=O)NCCCN` (stereo not given), the Control amounted to 116%.

`CCCCC/C=C\C/C=C\C/C=C\C=C\C(O)CCCC(=O)NN` (stereo not given): the Control was 60%.

`CCCCC/C=C\C/C=C\C/C=C\C=C\C(O)CCCC(=O)NCCO` (stereo not given): the Control was 125%.

Turning to `CCCCC/C=C\C/C=C\C/C=C\C=C\C(O)CCCC(=O)N(C)C` (stereo not given), the Control is on record as 138%.

Turning to `CCCCC/C=C\C/C=C\C/C=C\C=C\C(O)CCCC(=O)NC` (stereo not given), the Control worked out at 108%.

A further experiment deals with LNCaP. Description: Evaluated for its growth enhancement or mitogenic activity using LNCaP prostate cultures. Type of experiment: functional, cell-based. As to conditions: Homo sapiens, Prostate gland.
Regarding `CCCCCCCC/C=C\CCCCCCCC(=O)NCCO`, the Control result was “No effect”.
